Like-named read-outs stand apart in the source and are kept apart here.
Key:
HEK293 Lysate = assay: Hek293 lysate inhibition assay; assay type: biochemical
Description: Hek293 cells were purchased from ATCC and cultured in Dulbecco's modified eagle's medium with glutamax and 10% (v/v) FBS. Cells were plated in 75 cm^2 flasks and incubated at 37° C. and 5% CO2 until −80% confluent. Cells were harvested, washed, and pelleted, lysed before protein concentration was determined using a Tecan M200 spectrophotometer in a BCA assay, and finally stored at −80° C. Upon need, lysate was thawed and diluted to 1 mg/mL of protein concentration with HDAC Buffer. […] The solution was buffered to a pH of 8 and addition of 1 mg/mL BSA was added. 10 μL of this diluted lysate solution was added in 96-well format black U-bottom plates. Serially diluted inhibitor solution was added and a 2 hour pre incubation occurred at 37° C. 50 μM (final) of Acetylated Lysine-Aminomethyl coumarin-BOC in HDAC buffer solution was added and a second 2 hour incubation occurred at 37° C. 5 mg/mL trypsin, 1 μM trichostatin A solution in HDAC buffer was added to quench the reaction. […] Data were normalized to control wells containing no inhibitor. IC50's were determined using GraphPad Prism's built in “log(inhibitor) vs. normalized response—Variable slope” function.

HDAC3 = HDAC3 (Homo sapiens (Human), UniProt O15379); assay: Recombinant HDAC inhibition assay (HDAC3); assay type: biochemical
Description: Recombinant HDACs 1, 2, and 3 (BPS Biosciences) were diluted to a concentration of 1 nM in HDAC buffer. 10 uL of this solution was added in 96-well format to black U-bottom plates. 10 uL of serially diluted inhibitor was added and a 2 hour pre incubation occurred at room temperature. 50 μM (final) of Acetylated Lysine-Aminomethyl coumarin-BOC in HDAC buffer solution was added and a second 2 hour incubation occurred at room temperature. 5 mg/mL trypsin, 1 μM trichostatin A solution in HDAC buffer was added to quench the reaction. […] Data were normalized to control wells containing no inhibitor. IC50's were determined using GraphPad Prism's built in “log(inhibitor) vs. normalized response—Variable slope” function.

HDAC1 = HDAC1 (Homo sapiens (Human), UniProt Q13547); assay: Recombinant HDAC inhibition assay (HDAC1); assay type: biochemical
Description: (§1) Recombinant HDACs 1, 2, and 3 (BPS Biosciences) were diluted to a concentration of 1 nM in HDAC buffer. 10 uL of this solution was added in 96-well format to black U-bottom plates. 10 uL of serially diluted inhibitor was added and a 2 hour pre incubation occurred at room temperature. 50 μM (final) of Acetylated Lysine-Aminomethyl coumarin-BOC in HDAC buffer solution was added and a second 2 hour incubation occurred at room temperature. 5 mg/mL trypsin, 1 μM trichostatin A solution in HDAC buffer was added to quench the reaction. Fluorescence was read at 360 (ex.)/460 (em.) using a Tecan M200 Pro. Data were normalized to control wells containing no inhibitor. IC50's were determined using GraphPad Prism's built in “log(inhibitor) vs. normalized response—Variable slope” function.

HDAC2 = HDAC2 (Homo sapiens (Human), UniProt Q92769); assay: Recombinant HDAC inhibition assay (HDAC2); assay type: biochemical
Description: as §1

[1] = system: TA97a and TA100 S. typhimurium; assay: mini-Ames test; conditions: 96-well format
Description: Test were ran with TA97a (shown) and TA100 S. typhimurium.
Tests were run with TA97a (shown) and TA100 S. typhimurium.

Raw264.7 = assay: HMGB-1 secretion by macrophages; assay type: cell-based; conditions: LPS plus ATP challenge
MV4-11 cells = assay: Western blot analysis of MV4-11 cells; assay type: cell-based
Description: MV4-11 cells were cultured as described above. Cells were plated at 500 k cells/mL×3 mLs in clear, flat bottom 6 well plates. Cells were pre-incubated for 24 hours before addition of inhibitor at various concentrations. […] Cell pellets were lysed with RIPA buffer. RIPA buffer is comprised of 50 mM Tris Base, 150 mM NaCl, 5 mM EDTA, 0.1% (v/v) SDS, 0.5% (v/v) Sodium Deoxycholate, and 1% (v/v) Triton-x-100. After lysing, the suspension is ultra-sonicated and centrifuged at 15000 RPM for 15 minute at 4° C. 80 μL of supernatant was mixed with 40 μL of 15:85 (v/v) 3-mercaptoethanol:LDS solution. The mixture was heated at 90° C. for 15 minutes and stored for loading at −20° C. Prior to loading, the solution was flash thawed at 90° C. Lysates were run on Invitrogen NuPAGE 4-12% Bis-Tris 15 well gels at 170V for approximately 60 minutes in MES buffer. Gels were transferred to […] and ran at 30V for 180 minutes. Primary antibodies, purchased from Santa Cruz Biotechnology, were added in 5% (w/v) milk or 5% (w/v) Bovine Serum Albumin fraction V. The antibody was incubated with cellulose overnight at 4° C. before addition of secondary antibody in 5% (w/v) milk or 5% (w/v) Bovine Serum Albumin. Images were read using a GE ImageQuant LAS 4000. Global lighting adjustments of resulting images were made using Adobe Photoshop CC. Quantification was performed using Image Studio Lite 4.0.

[2] = reported, cited from earlier work
[3] = system: Raw246.7 macrophage cells; assay: NO production in activated macrophages; assay type: cell-based; conditions: 100 nM, LPS and LPS+ATP
Text: Hypo-acetylation of histone H3 and H4 were also reversed with HDAC inhibitor treatments (yellow dash box). d.

[4] = in human, reported; cited from earlier work

HDAC1, sequence (Q13547 whole entry): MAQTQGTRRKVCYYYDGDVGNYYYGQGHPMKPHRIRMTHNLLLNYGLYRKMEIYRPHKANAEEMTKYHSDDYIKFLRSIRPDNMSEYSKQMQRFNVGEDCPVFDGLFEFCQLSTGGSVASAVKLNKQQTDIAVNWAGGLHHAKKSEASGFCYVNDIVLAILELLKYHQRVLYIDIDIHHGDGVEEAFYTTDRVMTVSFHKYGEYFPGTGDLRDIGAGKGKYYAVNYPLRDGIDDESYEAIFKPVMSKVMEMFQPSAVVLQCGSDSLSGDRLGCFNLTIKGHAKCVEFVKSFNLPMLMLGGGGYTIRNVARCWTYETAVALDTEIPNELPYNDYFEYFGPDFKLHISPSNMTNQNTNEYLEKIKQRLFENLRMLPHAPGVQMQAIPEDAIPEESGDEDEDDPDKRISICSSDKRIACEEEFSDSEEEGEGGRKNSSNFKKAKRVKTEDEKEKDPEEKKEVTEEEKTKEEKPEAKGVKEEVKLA
HDAC2, sequence (Q92769 whole entry): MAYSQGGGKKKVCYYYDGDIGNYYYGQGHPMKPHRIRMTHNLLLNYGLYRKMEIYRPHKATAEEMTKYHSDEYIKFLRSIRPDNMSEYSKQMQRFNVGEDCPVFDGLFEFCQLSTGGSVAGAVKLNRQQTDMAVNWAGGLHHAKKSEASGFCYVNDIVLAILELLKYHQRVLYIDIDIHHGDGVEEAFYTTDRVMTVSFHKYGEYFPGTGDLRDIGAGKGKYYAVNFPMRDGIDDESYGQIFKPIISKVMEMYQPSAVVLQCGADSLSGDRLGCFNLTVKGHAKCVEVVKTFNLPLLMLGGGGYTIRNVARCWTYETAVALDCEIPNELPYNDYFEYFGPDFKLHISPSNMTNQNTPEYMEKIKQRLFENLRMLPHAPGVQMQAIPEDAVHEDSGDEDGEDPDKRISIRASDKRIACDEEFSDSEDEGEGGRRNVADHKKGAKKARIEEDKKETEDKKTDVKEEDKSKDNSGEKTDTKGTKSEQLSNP
HDAC3, sequence (O15379 whole entry): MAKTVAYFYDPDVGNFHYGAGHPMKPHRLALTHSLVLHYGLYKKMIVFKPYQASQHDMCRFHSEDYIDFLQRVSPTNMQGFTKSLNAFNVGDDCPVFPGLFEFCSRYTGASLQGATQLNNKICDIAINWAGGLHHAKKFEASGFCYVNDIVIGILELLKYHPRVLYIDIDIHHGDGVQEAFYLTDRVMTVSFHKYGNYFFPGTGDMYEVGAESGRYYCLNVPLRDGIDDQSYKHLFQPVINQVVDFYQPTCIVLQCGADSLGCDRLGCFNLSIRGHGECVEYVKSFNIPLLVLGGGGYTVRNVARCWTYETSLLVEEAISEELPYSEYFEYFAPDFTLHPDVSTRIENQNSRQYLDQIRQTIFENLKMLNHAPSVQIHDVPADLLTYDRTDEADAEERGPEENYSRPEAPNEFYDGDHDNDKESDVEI
HDAC3, sequence (Q9Y618 395-489 partner): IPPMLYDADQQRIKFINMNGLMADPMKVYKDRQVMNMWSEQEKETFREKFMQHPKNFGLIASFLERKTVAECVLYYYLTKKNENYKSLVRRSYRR

| Structure (SMILES) | IC50 (HEK293 Lysate) | IC50 (HDAC3) | further results |
| --- | --- | --- | --- |
| CCCCNNC(=O)c1cccc2ccccc12 [Compound 1j, N′-butyl-1-naphthohydrazide] | > 10000 nM | > 10000 nM | – |
| CCCCNNC(=O)c1ccc(OC)cc1 [Compound 1a, N′-butyl-4-methoxybenzohydrazide] | 727 ± 10.8 nM | 157 ± 28.6 nM | – |
| CCNNC(=O)c1ccc(CNC(=O)/C=C/c2ccccc2)cc1 [Compound 3a, N-(4-(2-ethylhydrazine-1-carbonyl)benzyl)cinnamamide] | 171 ± 34.2 nM | 19.7 ± 1.41 nM | IC50 (HDAC1): 29.5 ± 10.7 nM; IC50 (HDAC2): 76.6 ± 9.74 nM |
| CCCCNNC(=O)c1ccc(Oc2ccccc2)cc1 [Compound 1c, N′-butyl-4-phenoxybenzohydrazide] | 1690 ± 298 nM | 312 ± 42.8 nM | – |
| Nc1ccc2cc3ccccc3cc2c1 [2-aminoanthracene] | – | – | mutagenicity (mini-Ames) [1]: Ames positive |
| CCCCCCCCCCNNC(=O)c1ccc(CNC(=O)c2ccccc2)cc1 [Compound 2k, N-(4-(2-decylhydrazine-1-carbonyl)benzyl)benzamide] | > 10000 nM | > 10000 nM | – |
| CC/C=N/NC(=O)c1ccc(CNC(=O)c2ccccc2)cc1 [Compound 2c, (E)-N-(4-(2-propylidenehydrazine-1-carbonyl)benzyl)benzamide] | > 10000 nM | > 10000 nM | – |
| CCCCNNC(=O)/C=C/c1ccccc1 [Compound 1i, N′-butylcinnamohydrazide] | 1440 ± 86.1 nM | 294 ± 32.6 nM | – |
| CCCCNNC(=O)c1ccc(CNC(=O)c2ccccc2)cc1 [Compound 1l, N-(4-(2-butylhydrazine-1-carbonyl)benzyl)benzamide] | – | – | IC50 (HDAC1): 18.9 ± 2.74 nM; IC50 (HDAC2): 65.2 ± 10.4 nM |
| O=C(CCCCCCC(=O)Nc1ccccc1)NO [vorinostat, suberanilohydroxamic acid, reference compound] | – | – | HMGB-1 secretion (Raw264.7): attenuated; increase in Hsp70 level (MV4-11 cells): observed; t1/2 [2]: 0.2 h; NO production, acute treatment [3]: only inhibited LPS induced NO production but not ATP driven ones |
| CCCCNNC(=O)CCc1ccccc1 [Compound 1h, N′-butyl-3-phenylpropanehydrazide] | > 10000 nM | 1890 ± 227 nM | – |
| CCCCCNNC(=O)c1ccc(CNC(=O)/C=C/c2ccccc2)cc1 [Compound 3d, N-(4-(2-pentylhydrazine-1-carbonyl)benzyl)cinnamamide] | 691 ± 54.7 nM | 32.5 ± 1.15 nM | IC50 (HDAC1): 47.4 ± 16.8 nM; IC50 (HDAC2): 99.6 ± 17.4 nM |
| CCCNNC(=O)c1ccc(CNC(=O)c2ccccc2)cc1 [Compound 2d, N-(4-(2-propylhydrazine-1-carbonyl)benzyl)benzamide] | – | – | IC50 (HDAC1): 13.2 ± 2.01 nM; IC50 (HDAC2): 77.6 ± 9.52 nM |
| CCCCc1nc2cc(/C=C/C(=O)NO)ccc2n1CCN(CC)CC [Pracinostat] | – | – | AUCinf [2]: 1,841 ng·h/mL; Cmax [2]: 2,632 ng/mL; t1/2 [2]: 2.4 h |
| O=C(NCc1ccc(C(=O)NNCC2CCC2)cc1)c1ccccc1 [Compound 2m, N-(4-(2-(cyclobutylmethyl)hydrazine-1-carbonyl)benzyl)benzamide] | 1880 ± 212 nM | 84.4 ± 7.22 nM | – |
| CCCCNNC(=O)c1cccnc1 [Compound 1d, N′-butylnicotinohydrazide] | 4680 ± 909 nM | 1550 ± 430 nM | – |

| Structure (SMILES) | IC50 (HEK293 Lysate) | IC50 (HDAC3) | further results |
| --- | --- | --- | --- |
| C/C=C/CNNC(=O)c1ccc(CNC(=O)c2ccccc2)cc1 [Compound 2a, (E)-N-(4-(2-(but-2-en-1-yl)hydrazine-1-carbonyl)benzyl)benzamide] | > 10000 nM | 1530 ± 228 nM | HMGB-1 secretion (Raw264.7): attenuated |
| CCCCNNC(=O)c1ccc(CNC(=O)/C=C/c2ccccc2)cc1 [Compound 3c, N-(4-(2-butylhydrazine-1-carbonyl)benzyl)cinnamamide] | – | – | IC50 (HDAC1): 60.2 ± 21 nM; IC50 (HDAC2): 70 ± 26.4 nM |
| CC(C)NNC(=O)c1ccc(CNC(=O)c2ccccc2)cc1 [Compound 2b, N-(4-(2-isopropylhydrazine-1-carbonyl)benzyl)benzamide] | > 10000 nM | > 10000 nM | – |
| CCCCNNC(=O)c1cccs1 [Compound 1f, N′-butylthiophene-2-carbohydrazide] | 3460 ± 669 nM | 904 ± 154 nM | – |
| O=C(NCc1ccc(C(=O)NNCC2CC2)cc1)c1ccccc1 [Compound 2g, N-(4-(2-(cyclopropylmethyl)hydrazine-1-carbonyl)benzyl)benzamide] | 1620 ± 196 nM | 39.93 ± 0.25 nM | – |
| CCCCCCNNC(=O)c1ccc(CNC(=O)/C=C/c2ccccc2)cc1 [Compound 3e, N-(4-(2-hexylhydrazine-1-carbonyl)benzyl)cinnamamide] | 1720 ± 139 nM | 150 ± 81.6 nM | IC50 (HDAC1): 81.4 ± 12 nM; IC50 (HDAC2): 139 ± 29.9 nM |
| CCCCCCCCNNC(=O)c1ccc(CNC(=O)c2ccccc2)cc1 [Compound 2i, N-(4-(2-octylhydrazine-1-carbonyl)benzyl)benzamide] | > 10000 nM | 1090 ± 334 nM | – |
| O=C(NCc1ccc(C(=O)NNCCC(F)(F)F)cc1)c1ccccc1 [Compound 2f, N-(4-(2-(3,3,3-trifluoropropyl)hydrazine-1-carbonyl)benzyl)benzamide] | 1230 ± 136 nM | 69.1 ± 0.52 nM | – |
| CCCCCNNC(=O)c1ccc(CNC(=O)c2ccccc2)cc1 [Compound 2e, N-(4-(2-pentylhydrazine-1-carbonyl)benzyl)benzamide] | – | – | IC50 (HDAC1): 20.2 ± 5.04 nM; IC50 (HDAC2): 43.6 ± 33.2 nM |
| Cc1[nH]c2ccccc2c1CCNCc1ccc(/C=C/C(=O)NO)cc1 [panobinostat] | – | – | increase in Hsp70 level (MV4-11 cells): observed; mutagenicity (mini-Ames) [1]: Ames positive; t1/2 [4]: 16 h; t1/2 ([2]; in rodent): 2.9 h; Cmax [2]: 116 ng/mL |
| CCCCNNC(=O)c1ccco1 [Compound 1g, N′-butylfuran-2-carbohydrazide] | > 10000 nM | 5000 ± 372 nM | – |
| CCCCCCCNNC(=O)c1ccc(CNC(=O)c2ccccc2)cc1 [Compound 2h, N-(4-(2-heptylhydrazine-1-carbonyl)benzyl)benzamide] | 2160 ± 896 nM | 569 ± 84.9 nM | – |
| CCCCNNC(=O)c1cc2ccccc2o1 [Compound 1b, N′-butylbenzofuran-2-carbohydrazide] | 1690 ± 38 nM | 1360 ± 197 nM | – |
| CCNNC(=O)c1ccc(CNC(=O)c2ccccc2)cc1 [Compound 2l, N-(4-(2-ethylhydrazine-1-carbonyl)benzyl)benzamide] | 427 ± 110 nM | 187.3 ± 0.6 nM | – |
| CCCCCCNNC(=O)c1ccc(CNC(=O)c2ccccc2)cc1 [Compound 2j, N-(4-(2-hexylhydrazine-1-carbonyl)benzyl)benzamide] | 550 ± 134 nM | 184 ± 74.5 nM | – |

Reference: US10870618B2, “Histone deacetylase inhibitors and uses thereof” (MUSC FOUNDATION FOR RESEARCH DEVELOPMENT, priority 2016, dated 2020)
